Measured values reported in patent publication US20070196272A1, “ORAL DELIVERY OF THERAPEUTIC AGENTS USING TIGHT JUNCTION AGONISTS” (priority 2006, published 2007).
Like-named read-outs stand apart in the source and are kept apart here.

Experiments:
Caco-2 cell monolayers [1] = conditions: ZOT 0.22 to 0.89×10^−10 mol/ml; as seen with paclitaxel; cited from earlier work
[2] = ZOT 4.4×10^−10 mol/kg; cited from earlier work
[3] = as seen with CsA after metabolic protection; cited from earlier work
PAR-2 = biological target: T1, PAR-2 (Mus musculus, UniProt P55086); conditions: intracolonic infusion, 5 μg dose; cited from earlier work
T1 construct: Intracolonic infusion of a 5 μg dose of the PAR-2 agonist, SLIGRL; host or cells: colon in vivo (endogenous receptor)
T1 sequence (P55086 26-399): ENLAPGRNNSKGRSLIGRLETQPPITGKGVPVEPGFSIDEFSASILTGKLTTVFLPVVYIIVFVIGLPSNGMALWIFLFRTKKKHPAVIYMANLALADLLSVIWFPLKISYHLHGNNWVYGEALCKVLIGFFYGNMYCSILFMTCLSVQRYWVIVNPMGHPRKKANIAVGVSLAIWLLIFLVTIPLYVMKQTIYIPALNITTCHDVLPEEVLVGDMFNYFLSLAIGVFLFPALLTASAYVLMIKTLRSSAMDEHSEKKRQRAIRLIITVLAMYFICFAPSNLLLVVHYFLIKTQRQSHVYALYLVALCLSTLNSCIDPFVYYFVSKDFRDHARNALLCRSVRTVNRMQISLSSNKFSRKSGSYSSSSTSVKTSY

[4] = AT-1002 10 mg/kg with bestatine 30 mg/kg and E-64 10 mg/kg, oral, each sampling time
Protocol: The ability of AT-1002 on the transport of [^14C]-mannitol across the intestinal membrane was examined in mice. [^14C]-mannitol (30 μCi/kg) was co-administered with AT-1002 (10 mg/kg) and protease inhibitors (i.e. bestatine (30 mg/kg) and E-64 (10 mg/kg)) to mice (n=3 per group) via the oral administration.

Caco-2 cell monolayers [5] = conditions: AT1002 5 mM
Protocol: (§1) Caco-2 cells, a human colon adenocarcinoma cell line, were grown as monolayers for 21 days in Dulbecco's Modified Eagle's medium (1×) containing 10% fetal bovine serum, 1% non-essential amino acid solution, 1% penicillin-streptomycin and 2% glutamine at 37° C. in an atmosphere of 5% CO2 and 90% relative humidity. Caco-2 cells from passage numbers of 51 to 52 were seeded on permeable polycarbonate inserts (1 cm^2, 0.4 μm pore size) in 12 Transwell plates at a density of 80,000 cells/cm^2. The inserts were fed with media every other day until they were used for experiments 21 days after the initial seeding. The integrity of the cell monolayers was evaluated by measuring the transepithelial electrical resistance (TEER) values before the study using a Millicell®-ERS meter (Millipore Corp., Bedford, Mass.) with chopstick electrodes. […] The cell monolayers were washed twice with PBS prior to the transport experiments. After the wash, the plates were incubated for 30 min at 37° C., and the integrity of the cell monolayers was evaluated by measurement of TEER. The cell inserts were used in transport experiments when the TEER values reached >300 Ωcm^2.
(§2) The insert was moved to a well containing fresh PBS every 10 min for 40 min.
(§3) Papp was calculated according to the following equation: [formula] […]
(§4) The percent enhancement ratio, ER (%), for the Papp was calculated from the formula, [formula] […]

[6] = AT-1002 10, 20 and 40 mg/kg, PI, BC 0.05% w/v, ID
Protocol: The effect of AT-1002 on the transport of [^14C]-innulin across the intestine was examined in mice. [^14C]-innulin (30 μCi/kg) was co-administered with AT-1002 (10, 20 and 40 mg/kg), protease inhibitors (i.e. bestatine (30 mg/kg) and E-64 (10 mg/kg)) and benzalkonium chloride (0.05% w/v) to rats (n=4-5 per group) via the intra-duodenal administration.

[7] = for intestinal transport of [^3H]-cyclosporin A, enhancement: AT-1002 40 mg/kg with PI and BC 0.1% w/v, ID
Source text: Male Sprague-Dawley rats (230-280 g) were purchased from Harlan Laboratories (Indianapolis, Ind.). Rats were housed individually in cages and allowed to acclimate at least two days after arrival. Rats were fed Rat Chow and water ad libitum and maintained on a 12-h light: 12-h dark cycle. The protocol for the animal studies was approved by the School of Pharmacy, University of Maryland IACUC.
Male Sprague-Dawley rats were fasted overnight prior to and during the study with free access to water. Prior to the administration of AT1002, the rats were anesthetized with an intra-peritoneal injection of ketamine (80 mg/kg) and xylazine (12 mg/kg), and the duodenum and jugular vein were cannulated. […] Blood samples (250 μl) were drawn via the jugular cannula into heparinized syringes at 0 (actual time point was −5 min before the administration), 20, 60, and 120 min into polypropylene tubes, centrifuged (13,000 rpm for 10 min) immediately and plasma was obtained. Scintillation cocktail was added and samples were analyzed for radioactivity by Beckman Coulter LS 6500 multi-purpose Scintillation counter.
The area under the plasma concentration-time curve (AUC0-t) was calculated using the linear trapezoidal rule. The highest observable concentration was defined as maximum concentration (Cmax). The percent enhancement ratio, ER (%), for the pharmacokinetic parameters was calculated from the formula, [formula]
[^3H]-cyclosporin (120 μCi/kg) was co-administered with AT-1002 (40 mg/kg), protease inhibitors (i.e. bestatine (30 mg/kg) and E-64 (10 mg/kg)) and benzalkonium chloride (0.1% w/v) to rats (n=5 per group) via the intra-duodenal administration.

[8] = PI, BC 0.05% w/v, ID, not statistically enhanced
[9] = test system: intercellular tight junctions; assay: Ussing chamber model
Source text: Our recent observation that zonulin may represent a new member of the serine protease family whose target receptor seems to be a variant of the protease activated receptor (PAR)2, lead us to the observation that the first six amino acids following V. cholerae-mediated ZOT cleavage (AA 289-295 [FCIGRL]) closely resembles the active motif of PAR2 (SLIGRL). Therefore, the six-mer synthetic peptide FCIGRL (that we named AT1002) was generated.

in vitro = conditions: human, Caco-2
Protocol: as §1, §2, §3, §4

For “ZOT: 44.8 kDa protein (399 amino acids) of Vibrio cholerae that reversibly opens tight junctions”, the “transport enhancement across Caco-2 cell monolayers” value (Caco-2 cell monolayers [1]) is given as “up to 30 fold” and the “bioavailability of oral insulin / serum glucose lowering” value [2] is given as “sufficient to lower serum glucose concentrations to levels comparable to those obtained after parenteral injection”.
For “ΔG: 12 kDa fragment (AA 265-399) of ZOT, biologically active fragment”, the “increase in AUC” value [3] is given as ≤ 50 fold and the “increase in Cmax” value [3] is given as “up to 57 fold”.
In the case of SLIGRL, the “increase in the paracellular permeability of [^51C]-EDTA” value (PAR-2) is given as 2 fold.
In the case of H-FCIGRL-OH [AT1002, H—FCIGRL-OH], the “intestinal membrane transport of marker” value [4] is reported as “not enhanced”, the “CsA transport across Caco-2 cell monolayers, significance vs control” value (Caco-2 cell monolayers [5]) is reported as “No significant increases” and the “intestinal membrane transport of [^14C]-innulin” value [6] is reported as “not enhanced”. For the same molecule, the “intestinal transport of [^3H]-cyclosporin A, enhancement” value ([7]; 20 min) was 1.78 fold, the “intestinal transport of [^3H]-cyclosporin A, enhancement” value ([7]; 60 min) was 1.55 fold and the “change in plasma concentration of CsA between 10 mg/kg and 40 mg/kg of AT1002” value ([7]; each time point) was “No statistically significant change”. For the same molecule, the “in vivo oral absorption of CsA” value ([7]; in the presence of PI) was “significantly increased”, the “intestinal membrane transport of [^14C]-mannitol, increase” value (from here on “intestinal membrane transport … increase”) ([8]; AT-1002 10 mg/kg) was 1.43 fold and the “intestinal membrane transport … increase” value ([8]; AT-1002 20 mg/kg) was 1.24 fold. The “intestinal membrane transport … increase” value ([8]; AT-1002 30 mg/kg) was 1.81 fold and the “permeating effect on intercellular tight junctions” value [9] was “retained the ZOT permeating effect”.
In the case of OC[C@@H](O)[C@@H](O)[C@H](O)[C@H](O)CO [Mannitol], the Papp at 0.5 μCi/ml (in vitro) is reported as 0.686 ± 0.057 ×10⁻⁶ cm/s.
